Data set [1] deals with healthy male subjects. Put plainly: thorough QT/QTc study, 24-hour digital Holter ECG (QTc, HR, PR). Conditions: for decrease of time-matched, baseline-adjusted LS mean PR interval (ΔΔPR): 2 hours postdose; for effect on the QT/QTc interval: overall conclusion of the study.
Method: This was a single-center, randomized, crossover study with 4 treatments, 4 periods, and 4 sequences conducted in healthy male subjects. Apremilast (Otezla; Celgene Corporation, Summit, NJ, USA) was administered in a double-blind manner with matching placebo, and moxifloxacin was administered in an open-label manner. The core central electrocardiogram (ECG) laboratory staff, including those reading the ECGs, was blinded to treatment, sequence time, and subject identifiers.
The 4 treatments evaluated in this study included an apremilast-matched placebo administered twice daily (b.i.d.) for 9 doses (~ 5 days), a clinically relevant dose of apremilast 30 mg administered b.i.d. for 9 doses, a supratherapeutic dose of apremilast 50 mg administered b.i.d. for 9 doses, and placebo administered on days 1 – 4 followed by a single dose of moxifloxacin 400 mg on day 5. Subjects fasted for at least 8 hours before the morning dose or before the start of Holter monitoring on days –1 and 5.
ECGs were analyzed for ventricular HR, PR, QRS, RR, and QT intervals and morphological changes. Mean of the triplicate ECGs at each nominal time point was used for all reporting and analysis; however, individual values were used to calculate the correction coefficient (γ) for QTcI. The QTc corrections were individual correction by QTcI = QT/RR^γ, Fridericia’s by QTcF = QT/RR^0.33, and Bazett’s by QTcB = QT/RR^0.5. Individual correction coefficient, γ, was estimated using linear regression of log QT on log RR for each subject using all baseline ECG assessments collected before day 1 dosing in period 1 within a subject. Change from baseline was calculated as the average of the three predose assessments on day 1 of the corresponding treatment period subtracted from the value (i.e., QTc) on day 5 at a given time t. Double-delta (ΔΔ) values for various cardiac parameters (i.e., ΔΔQTcI, ΔΔQTcB, etc.) were determined as the change from baseline value relative to placebo at the same scheduled time.
At each time point, difference in least-squares (LS) means was estimated between the LS means of each apremilast dose and placebo (with placebo as reference). Two-sided 90% confidence intervals (CIs) were produced for the comparisons.
The effect of QTcI for moxifloxacin was assessed at 1, 1.5, 2, 3, and 4 hours postdose to assess assay sensitivity. At each time point, the ΔΔ value was estimated between the LS means of moxifloxacin and placebo. […] If at least one of the CIs completely exceeded 5 ms, then the assay was declared sensitive.
For secondary analyses, a Student’s t-test was performed comparing each dose of apremilast vs. placebo and between moxifloxacin and placebo at each time point. Two-sided 90% CIs were produced for the comparisons. The effect of apremilast on QTcF, QTcB, HR, PR, and QT was assessed using the same linear mixed model from the primary analysis. […] The model included treatment group, period, sequence, and baseline ECG interval as a covariate, and subject nested within sequence as a random effect.
If a subject experienced > 1 episode of a particular outlier event, the subject was counted only once for that event.
The target of the next data set is T1, hERG potassium channel (Homo sapiens, UniProt Q12809).
T1 construct: expressed in transfected cells; host or cells: HEK-293 cells stably expressing hERG
The data set is described as follows: voltage-clamp study of hERG current in HEK293 cells expressing hERG. The class given is cell-based. The text has this:
This IC50 value is > 2 orders of magnitude greater than the maximum plasma concentration (Cmax) values observed in healthy male subjects and in PsA or rheumatoid patients at the highest doses studied. Prolongation of the QT interval is associated with a rare but dangerous ventricular arrhythmia, torsade de pointes, and drug-induced prolongation of the QT interval represents a significant risk. The current study was undertaken to provide definitive evaluation of the clinical potential for prolongation of the QT interval with apremilast.
Furthermore, a structure-activity relationship study has shown that the structure of a PDE4 inhibitor can be optimized for high-potency PDE4 inhibition and minimize or eliminate its affinity for hERG channel by targeted modification of pharmacophores. The structure of apremilast was optimized for PDE4 inhibition and minimal affinity for the hERG channel.
On the technique in general: Block of hERG is tested as a sign of cardiac risk.

Data set [2] relates to healthy male subjects. Put plainly: safety assessments (adverse events, vital signs, laboratory tests). The class given is in vivo, human. Conditions: up to doses of 50 mg twice daily. The method, then: Safety assessments were performed at clinic check-in, periodically throughout each treatment period, and at the end-of-study visit and included the measurement of vital signs, recording of standard 12-lead ECGs, collection of samples for clinical laboratory tests, and physical examinations. Adverse events (AEs) and concomitant medication use were assessed and recorded throughout the study.

On the set-up of data set [3]: method as in PMID 21859393. Conditions: cited from earlier work.
Details of data set [4]: method as in PMID 26097790. Conditions: 30 mg b.i.d., cited from earlier work.
Data set [5] relates to healthy male subjects. Put plainly: exploratory PK/PD relationship between ΔΔQTcI and plasma concentration (linear mixed-effect model). The class given is in vivo, human. Conditions: for relationship between changes in QT/QTc interval and plasma concentration: in vivo; for estimated slope (SE) of ΔΔQTcI vs plasma concentration: linear regression, random effect model, pooled doses. The protocol:
The PK/PD analysis was performed using a linear mixed-effect model to explore the relationship between the ΔΔQTcI and plasma concentrations for apremilast, M12, M14, and M16, and to estimate the population slope (β) and standard error of slope (SEβ). The expected maximum ΔΔQTcI effect for each dose and each analyte was estimated using the slope and average Cmax with one-sided upper limit 95% CIs.

Data set [6] can be described thus: plasma pharmacokinetics on day 5 after multiple oral doses of apremilast in healthy male subjects. The class given is in vivo, human. Conditions: for AUC / AUC0–τ, geometric mean (geometric CV%): τ 12 hours; for AUC: read-out: AUC0–τ, geometric mean (geometric CV%); for Tmax: read-out: tmax, median (minimum–maximum). The protocol:
PK parameters were derived using noncompartmental methods with WinNonlin® Professional version 5.1.2 (Pharsight Corporation, Mountain View, CA, USA). […] For determination of PK parameters (terminal elimination rate constant (Kel), time to maximum plasma concentration (tmax), and terminal half-life (t1/2)), plasma concentrations for apremilast and its major metabolites below the limit of quantitation (BLQ) were treated as missing except for the calculation of area under the plasma concentration-time curve (AUC). To calculate AUC, BLQ or missing concentrations in the beginning and end of profile were replaced with zero, and BLQ or missing concentrations in the middle of the profile were interpolated.
Blood samples were collected in lithium heparin tubes and plasma was separated. The plasma samples, fortified with Sorensen’s buffer (25 mM citrate, pH 1.5) containing amastatin 20 µM (1 : 1/v : v), were analyzed by two validated liquid chromatography/tandem mass spectrometry methods, one for determination of apremilast and the other for its metabolites M12 (CC-16166), M14 (CC-16793), and M16 (CC-16557).

Where [7] appears, read: both apremilast doses, all time points.
Setting [8] is: both apremilast doses, all values.
[9] abbreviates: patients with rheumatoid arthritis or PsA, n = 15.
Where [10] appears, read: apremilast 50 mg b.i.d., day 5, plasma.
Setting [11] is: male, human, oral, apremilast 30 mg b.i.d., day 5, plasma.
Where [12] appears, read: male, human, oral, apremilast 50 mg b.i.d., day 5, plasma.
[13] abbreviates: apremilast 30 mg b.i.d., day 5, plasma.

We go through 3 compounds from PMC4949396, “The effects of apremilast on the QTc interval in healthy male volunteers: a formal, thorough QT study” (International Journal of Clinical Pharmacology and …, 2016).

Read-outs that look alike come from different tables or passages of the source. Marks after values point to notes of the source that are not given here. Bounds are passed on as bounds.

T1 sequence (Q12809 whole entry): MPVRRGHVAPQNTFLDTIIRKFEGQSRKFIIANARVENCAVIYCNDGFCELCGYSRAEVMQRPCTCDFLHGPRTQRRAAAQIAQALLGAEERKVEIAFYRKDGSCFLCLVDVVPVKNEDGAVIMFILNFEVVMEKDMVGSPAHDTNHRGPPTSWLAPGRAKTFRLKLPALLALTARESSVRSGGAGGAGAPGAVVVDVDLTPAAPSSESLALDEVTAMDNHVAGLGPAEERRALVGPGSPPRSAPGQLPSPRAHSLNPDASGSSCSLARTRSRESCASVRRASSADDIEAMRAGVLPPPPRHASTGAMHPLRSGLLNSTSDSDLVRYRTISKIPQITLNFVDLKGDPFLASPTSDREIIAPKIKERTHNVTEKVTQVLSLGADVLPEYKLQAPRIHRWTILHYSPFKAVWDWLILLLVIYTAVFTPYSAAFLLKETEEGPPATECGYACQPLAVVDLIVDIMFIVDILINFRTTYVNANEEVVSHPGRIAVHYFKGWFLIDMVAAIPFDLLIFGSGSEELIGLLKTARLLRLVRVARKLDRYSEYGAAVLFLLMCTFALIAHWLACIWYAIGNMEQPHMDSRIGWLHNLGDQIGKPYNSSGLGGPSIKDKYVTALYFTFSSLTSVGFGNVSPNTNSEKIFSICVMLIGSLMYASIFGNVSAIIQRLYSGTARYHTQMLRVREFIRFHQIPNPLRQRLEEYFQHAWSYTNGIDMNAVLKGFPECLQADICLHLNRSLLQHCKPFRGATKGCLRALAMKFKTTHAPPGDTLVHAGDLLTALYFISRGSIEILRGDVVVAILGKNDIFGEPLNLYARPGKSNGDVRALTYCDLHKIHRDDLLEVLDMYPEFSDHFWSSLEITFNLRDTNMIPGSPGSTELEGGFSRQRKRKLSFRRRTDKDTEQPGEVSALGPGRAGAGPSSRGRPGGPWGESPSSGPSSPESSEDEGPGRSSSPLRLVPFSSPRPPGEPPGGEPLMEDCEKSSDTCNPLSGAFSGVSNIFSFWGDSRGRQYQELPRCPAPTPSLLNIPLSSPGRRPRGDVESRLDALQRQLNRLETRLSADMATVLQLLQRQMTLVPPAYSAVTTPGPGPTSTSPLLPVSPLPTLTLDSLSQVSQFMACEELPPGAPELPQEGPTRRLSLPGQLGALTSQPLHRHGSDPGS

What is called Tmax is the time at which the peak concentration occurs. As usually defined, the Cmax is the highest concentration seen after dosing. In the case of `CCOc1cc([C@@H](CS(C)(=O)=O)N2C(=O)c3cccc(NC(C)=O)c3C2=O)ccc1OC` [apremilast, (S)-N-[2-[1-(3-ethoxy-4-methoxyphenyl)-2-methanesulfonylethyl]-1,3-dioxo-2,3-dihydro-1H-isoindol-4-yl] acetamide], the “LS mean ΔΔQTcI” value was “–4.2 to 0.7 ms” with healthy male subjects [1] (apremilast 30 mg b.i.d., day 5, all time points); below 1 ms with healthy male subjects [1] (both apremilast doses (30 and 50 mg b.i.d.), all time points). Further, the “increase of time-matched, baseline-adjusted LS mean HR (ΔΔHR)” value with healthy male subjects [1] (apremilast 30 mg dose, 2 hours after administration) was determined as 3.1 bpm; in the data set on healthy male subjects [1] (apremilast 50 mg dose, 3 hours after administration), 4.4 bpm. The figures for the “decrease of time-matched, baseline-adjusted LS mean PR interval (ΔΔPR)” value in the data set on healthy male subjects [1] (apremilast 30 mg dose) and with healthy male subjects [1] (apremilast 50 mg dose) were 2.8 ms and 3.5 ms, respectively. Moreover, in the data set on healthy male subjects [1] (setting [7]), the “upper limit of two-sided 90% CI of ΔΔQTcB” value is listed as “below 10 ms”. Further, the “upper limit of two-sided 90% CI of ΔΔQTcF” value in the data set with healthy male subjects [1] (setting [7]) was “below 10 ms”. In the data set on healthy male subjects [1] (setting [8]), the “LS mean ΔΔQTcB” value is reported as below 5 ms. Further, in the data set with healthy male subjects [1] (setting [8]), the “LS mean ΔΔQTcF” value is recorded as below 1 ms. For the same compound, the “subjects with maximum on-treatment QT/QTc interval > 480 ms or change from baseline > 60 ms” value in the data set on healthy male subjects [1] (categorical analysis, while receiving apremilast) is “No subject”. Besides, the “effect on the QT/QTc interval” value in the data set on healthy male subjects [1] was “did not prolong the QT interval”. Besides, on hERG potassium channel (HEK293 cells expressing hERG), the “Hill coefficient of hERG current inhibition” value is recorded as 0.9. Besides, the IC50 on hERG potassium channel (HEK293 cells expressing hERG, read-out: hERG current inhibition, estimated half maximal inhibitory concentration (IC50)) is 184 µM; on hERG potassium channel (HEK293 cells expressing hERG, same value in mass units, read-out: hERG current inhibition, estimated IC50 (converted)), 184 µM. Moreover, on hERG potassium channel (voltage-clamp, HEK-293 cells stably expressing hERG), the “affinity for the hERG channel” value is recorded as “low affinity”. In addition, the “hERG IC50 relative to Cmax at the highest doses studied” value on hERG potassium channel (vs Cmax in healthy male subjects and PsA or rheumatoid patients) is listed as > 2 orders of magnitude. In addition, the safety and tolerability result in the data set with healthy male subjects [2] was “safe and well tolerated”. Also, the half-life in data set [3] (humans) was 6 to 9 h; in data set [6] (male, human, oral, apremilast 30 mg b.i.d., day 5, plasma, read-out: t1/2, geometric mean (geometric CV%) (converted)), 6.41 h; in data set [6] (male, human, plasma, oral, across both doses (30 and 50 mg b.i.d.), read-out: mean t1/2) it was 6 to 7 h. Moreover, the “maximum AUC0–12” value in data set [4] (PsA and psoriasis patients) is reported as 8,280 ng×h/mL. For the same compound, the “maximum Cmax” value in data set [4] (PsA and psoriasis patients) is 981 ng/mL. For the same compound, the “geometric mean Cmax” value in data set [4] (setting [9]) was 554 ng/mL. For the same compound, the “mean AUC0–12” value in data set [4] (setting [9]) is 3,670 ng×h/mL. The “relationship between changes in QT/QTc interval and plasma concentration” value in the data set on healthy male subjects [5] is given as “No trend or relationship”. Moreover, the “estimated slope (SE) of ΔΔQTcI vs plasma concentration” value with healthy male subjects [5] is listed as “–0.0016 (0.0027)”. Moreover, the “increase of AUC with increasing dose” value in data set [6] (50 mg b.i.d. vs 30 mg b.i.d.) is ~ 1.5 times. The “increase of Cmax with increasing dose” value in data set [6] (50 mg b.i.d. vs 30 mg b.i.d.) is given as ~ 1.4 times. In data set [6] (setting [10]), the “t1/2, geometric mean (geometric CV%)” value was 7.28 (29.1) h. Further, the values for the AUC in data set [6] (setting [11]) and in data set [6] (setting [12]) were 2260 ng·h/mL and 3450 ng·h/mL, respectively. In addition, the Tmax in data set [6] (setting [11]) and in data set [6] (setting [12]) was 2 h in each case. Also, the Cmax was found to be 352 ng/mL in data set [6] (male, human, plasma, oral, 30 mg, apremilast 30 mg b.i.d., day 5, plasma, read-out: Cmax, geometric mean (geometric CV%)); 507 ng/mL in data set [6] (male, human, plasma, oral, 50 mg, apremilast 50 mg b.i.d., day 5, plasma, read-out: Cmax, geometric mean (geometric CV%)); 1060 ng/mL in data set [6] (male, human, plasma, oral, 50 mg, healthy subjects, 50 mg b.i.d., read-out: maximum Cmax). The AUC(0-t) in data set [6] (male, human, plasma, oral, healthy subjects, 50 mg b.i.d., read-out: maximum AUC0–12) turned out to be 9350 ng·h/mL.

In the case of `COc1c(N2C[C@@H]3CCCN[C@@H]3C2)c(F)cc2c(=O)c(C(=O)O)cn(C3CC3)c12` [moxifloxacin], in the data set on healthy male subjects [1], the “effect on the QT/QTc interval” value is “significantly increased the QT/QTc interval”.

As for “O-des-methyl-[S]-CC-10004-glucuronide [M12]”, the pharmacological activity result in data set [3] (glucuronide metabolites) is listed as “not pharmacologically active”. In addition, in data set [3] (humans), the half-life is recorded as ~ 16 hours and the “metabolite to total radioactivity ratio” value was ~ 39%. Moreover, in the data set on healthy male subjects [5], the “relationship between changes in QT/QTc interval and plasma concentration” value is recorded as “No trend or relationship”; the “estimated slope (SE) of ΔΔQTcI vs plasma concentration” value is on record as “–0.0006 (0.0028)”. In addition, in data set [6] (setting [13]), the “t1/2, geometric mean (geometric CV%)” value is on record as 12.18 (25.9)^c h; the “tmax, median (minimum–maximum)” value is given as 3.0 (1.0 – 12.0) h; the “AUC0–τ, geometric mean (geometric CV%)” value is listed as 3,930 (23.9) ng×h/mL. Besides, in data set [6] (setting [10]), the “Cmax, geometric mean (geometric CV%)” value was 659.1 (21.0) ng/mL; the “t1/2, geometric mean (geometric CV%)” value is listed as 12.79 (29.0)^e h; the “tmax, median (minimum–maximum)” value is 3.0 (0.5 – 6.0) h; the “AUC0–τ, geometric mean (geometric CV%)” value is on record as 5,968 (20.0) ng×h/mL. Besides, in data set [6] (plasma, day 5), the “AUC of metabolite relative to apremilast” value is reported as ~ 1.7 fold and the “Cmax of metabolite relative to apremilast” value is given as ~ 1.25 fold.
